Measured values published in US10316057B2, “Tandem facial amphiphiles” (WISCONSIN ALUMNI RESEARCH FOUNDATION, priority 2011, dated 2019).

Experiments:
Bacteriorhodopsin (bR) = target: T1, Bacteriorhodopsin (bR) (Halobacterium salinarum, UniProt P02945); test: Stabilization assay for bacteriorhodopsin (absorbance at 554 nm); settings: room temperature, 20 days; 0.2 wt % OTG+0.8 wt % TFA or 1.0 wt % OTG only
T1 construct: extract bR from the native purple membrane; endogenous in cells
T1 sequence (P02945 14-261 limits assumed): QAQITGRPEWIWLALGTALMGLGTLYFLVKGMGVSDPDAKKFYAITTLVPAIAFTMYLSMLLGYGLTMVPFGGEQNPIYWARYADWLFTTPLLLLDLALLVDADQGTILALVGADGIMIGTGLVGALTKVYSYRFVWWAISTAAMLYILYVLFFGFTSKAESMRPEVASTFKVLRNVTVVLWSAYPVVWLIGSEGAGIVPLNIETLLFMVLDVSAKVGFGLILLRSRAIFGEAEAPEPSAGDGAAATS
Experimental: Bacteriorhodopsin (bR) has been widely employed for assessment of new amphiphiles because this membrane protein is readily available, and stability can be assessed via spectrophotometry (absorbance at 554 nm). Following standard protocols (Bazzacco et al., Biomacromolecules 2009, 10, 3317-3326), 2.0 wt % octyl-β-D-thioglucoside (OTG) was used to extract bR from the native purple membrane. After removal of insoluble debris via ultracentrifugation, the bR solution was diluted with amphiphile-containing solutions to generate samples containing 0.2 wt % OTG+0.8 wt % TFA. A control sample had OTG added to give a total of 1.0 wt %. […] Parallel studies were carried out at different amphiphile concentrations as described in Example 3 below. DDM is not efficient at bR extraction from the native membrane but extracted bR can be stable in the presence of DDM (Milder et al., Biochemistry 1991, 30, 1751-1761).
The general procedure was followed according to the reported protocol of Bazzacco et al. (Biomacromolecules 10, 3317-3326 (2009)). Frozen aliquots of purple membranes containing bR at 184 μM were thawed and solubilized by incubation with octylthioglucoside (OTG) for 24 hr at 4° C. in a dark room. For the solubilization, OTG (CMC=0.28 wt %) was used at 2.0 wt % in 10 mM sodium phosphate (pH 6.9). […] BR stability in each TFA solutions was monitored by measuring absorbance at 554 nm for 20 days.

[1] = stated in the bR protocol; cited from earlier work
LHI-RC superassembly = tested on: T2, LHI-RC superassembly; test: Stabilization assay for R. capsulatus superassembly (A875/A680); design: species or system Rhodobacter capsulatus; settings: room temperature, 20 days, CMC+0.04 wt %, relative to DDM
T2 construct: The LHI-RC superassembly was extracted from native membranes with 1.0 wt % DDM; made in house; host or cells: Rhodobacter capsulatus U43[pUHTM86Bgl]; (lacks LHII), photosynthetic membranes
Text: The promising results with bR stabilization led to investigating a more challenging system, the photosynthetic superassembly formed by the light harvesting I (LHI) and reaction center (RC) complexes from Rhodobacter capsulatus (Laible et al., Biochemistry 2003, 42, 1718-1730). This superassembly contains 30-40 protein molecules (five different components), and maintenance of native quaternary structure can be assessed via spectrophotometry. The LHI-RC superassembly was extracted from native membranes with 1.0 wt % DDM and purified with DDM at its CMC (0.009 wt %). […]
Resin-retaining spin columns (e.g., emptied His SpinTrap™ columns; GE Healthcare) were inserted into a 2 mL microcentrifuge tube and the samples were then loaded onto the column. […] The protein was collected by eluting with two 0.25 mL elution buffer aliquots (this buffer was identical to binding buffer with the addition to 1 M of imidazole; the pH of each solution was checked and readjusted to pH=7.8). […]
UV-Vis spectra of these solutions were measured in regular intervals. FIG. 9 illustrates the time course of stability of R. capsulatus superassembly, evaluated at room temperature. […] Absorbance ratio (A875/A680) was followed for the stability evaluation of the membrane protein. […] FIG. 10 illustrates the absorbance spectrum of R. capsulatus superassembly in TFA-1 (a,c) and DDM (b,d) at room temperature (˜23° C.). […]

SMILES | bR stability over time (Bacteriorhodopsin (bR)) | CMC [1] | stability of LHI-RC superassembly (LHI-RC superassembly)
CCCCCCCCS[C@@H]1O[C@H](CO)[C@@H](O)[C@H](O)[C@H]1O [OTG, octyl-β-D-thioglucoside, reference compound] | almost completely denatured by day 10 | 0.28 wt % | 
CCCCCCCCCCCC[N+](C)(C)[O-] [lauryldimethylamine oxide] |  |  | rapid degradation of the superassembly
CCCCCCCCO[C@@H]1O[C@H](CO)[C@@H](O)[C@H](O)[C@H]1O [octyl-glucoside] |  |  | rapid degradation of the superassembly
